From patent US20060140888A1, “Whitening agent containing crystalline molecular complex of hydroquinone and surfactant” (priority 2002, published 2006)
Like-named read-outs stand apart in the source and are kept apart here.

Columns and labels:
[1] = Storage stability (outer appearance change) of ointments containing molecular complex crystals; format: physicochemical; details: hydrophilic ointment containing 5%, 2 weeks in air at room temperature
Text: Storage Sstability (Outer Appearance Change) of Ointments Prepared by Combining Different Surfactant/Hydroquinone Molecular Complex Crystals with Ointment Bases (Simple Ointment, Hydrophilic Ointment)

[2] = cited from earlier work
back of a person = test: Visual observation test for skin reaction (patch test); format: in vivo, human; details: for skin reaction (visual): patch test, kneaded with white vaseline
Protocol: A simple surfactant and surfactant/hydroquinone molecular complex crystals were kneaded with white vaseline, and used for a patch test with a patch tester (Torii Yakuhin) on the back of a person. Skin reactions such as eruption, redness, edema or papules were visually noted 48 hours after applying each patch. Skin reactions were also confirmed after 72 hours. The samples used for the patch test were as follows (where the percentage values indicate the proportions of the surfactant or molecular complex crystals).

Structure (SMILES) | outer appearance (coloration) of hydrophilic ointment [1] | solubility ([2]; in benzene) | solubility ([2]; in ether) | solubility ([2]; in ethyl acetate) | solubility ([2]; in methanol) | solubility ([2]; in water) | overall evaluation of patch test (back of a person; after 48 hours) | overall evaluation of patch test (back of a person; after 72 hours) | skin reaction (visual) (back of a person; after 48 hours) | skin reaction (visual) (back of a person; after 72 hours)
Oc1ccc(O)cc1 [simple hydroquinone, 1,4-benzenediol] | Brown spots were confirmed | poorly soluble | readily soluble | poorly soluble | readily soluble | soluble |  |  |  | 
CCCCCCCCCCCCCCCC[N+](C)(C)Cc1ccccc1.[Cl-] [No. 7, hexadecyldimethylbenzylammonium chloride] |  |  |  |  |  |  | negative | negative | some redness was found at the center area | Some redness remained in the center area
